# Test results published in patent publication US8338367B2, “Fused heteroaryl diamide compounds useful as MMP-13 inhibitors” (Boehringer Ingelheim International GmbH, priority 2008, dated 2012).
# Target: MMP13 (Homo sapiens, UniProt P45452)
# Test: EnzoLyte 520 Generic MMP Assay Kit (FRET peptide substrate), MMP-13 inhibition
# Format: biochemical
# Excerpt: The EnzoLyte™ 520 Generic MMP Assay Kit (AnaSpec Inc.) can detect the activity of several MMPs including MMP-1, 2, 3, 7, 8, 9, 13, and 14. This kit uses a 5-FAM/QXL™ 520 fluorescence resonance energy transfer (FRET) peptide as an MMP substrate. In the intact FRET peptide, the fluorescence of 5-FAM is quenched by QXL™ 520. Upon cleavage into two separate fragments by MMPs, the fluorescence of 5-FAM is recovered, and can be monitored at excitation/emission wavelengths=490 nm/520 nm. The assays are performed in a convenient 96-well or 384-well microplate format.
row,Compound,IC50 [nM]
1,CNC(=O)[C@@H](NC(=O)c1ccc(-c2ccc3cc[nH]c3c2)o1)C1CCCCC1 [5-(1H-Indol-6-yl)-furan-2-carboxylic acid ((S)-cyclohexyl-methylcarbamoyl-methyl)-amide],290
2,CNC(=O)[C@@H](NC(=O)c1ccc(-c2ccc3nc[nH]c3c2)o1)C1CCCCC1 [5-(3H-Benzimidazol-5-yl)-furan-2-carboxylic acid ((S)-cyclohexyl-methylcarbamoyl-methyl)-amide],270
3,"CNC(=O)[C@@H](NC(=O)c1ccc(-c2ccc3cc(C(=O)N4CCS(=O)(=O)CC4)[nH]c3c2)o1)C(C)C [5-[2-(1,1-Dioxo-λ^6-1-thiomorpholine-4-carbonyl)-1H-indol-6-yl]-furan-2-carboxylic acid ((S)-2-methyl-1-methylcarbamoyl-propyl)-amide]",200
4,CNC(=O)[C@@H](NC(=O)c1ccc(-c2ccc3cc(C(=O)N4CCN(C)CC4)[nH]c3c2)o1)C(C)C [5-[2-(4-Methyl-piperazine-1-carbonyl)-1H-indol-6-yl]-furan-2-carboxylic acid ((S)-2-methyl-1-methylcarbamoyl-propyl)-amide],300
5,CNC(=O)[C@@H](NC(=O)c1ccc(-c2ccc3cc(C(=O)N4CCOCC4)[nH]c3c2)o1)C(C)C [5-[2-(Morpholine-4-carbonyl)-1H-indol-6-yl]-furan-2-carboxylic acid ((S)-2-methyl-1-methylcarbamoyl-propyl)-amide],415
6,CNC(=O)[C@@H](NC(=O)c1ccc(-c2ccc3cc(C(=O)N4CCOCC4)[nH]c3c2)o1)C1CCCCC1 [5-[2-(Morpholine-4-carbonyl)-1H-indol-6-yl]-furan-2-carboxylic acid ((S)-cyclohexyl-methylcarbamoyl-methyl)-amide],340

# These reach a lower IC50. Values come first.
row,IC50 [nM],Compound
1,103,"CNC(=O)[C@@H](NC(=O)c1ccc(-c2cc3[nH]ccc3cn2)o1)C1CCCCC1 [5-(1H-Pyrrolo[3,2-c]pyridin-6-yl)-furan-2-carboxylic acid ((S)-cyclohexyl-methylcarbamoyl-methyl)-amide]"
2,34,CNC(=O)[C@@H](NC(=O)c1ccc(-c2ccc3nc(Cc4ccncc4)[nH]c3c2)o1)C1CCCCC1 [5-(2-Pyridin-4-ylmethyl-3H-benzimidazol-5-yl)-furan-2-carboxylic acid ((S)-cyclohexyl-methylcarbamoyl-methyl)-amide]
3,65,"CNC(=O)[C@@H](NC(=O)c1ccc(-c2ccc3cc(C(=O)N4CC(C)OC(C)C4)[nH]c3c2)o1)C(C)C (stereo partly drawn) [5-[2-(2,6-Dimethyl-morpholine-4-carbonyl)-1H-indol-6-yl]-furan-2-carboxylic acid ((S)-2-methyl-1-methylcarbamoyl-propyl)-amide]"
